In patent US20170354148A1, “SAFENED HERBICIDAL COMPOSITIONS CONTAINING HALAUXIFEN AND METHODS OF USE THEREOF IN BRASSICA SPECIES” (Dow AgroSciences LLC, priority 2016, published 2017):

How the values were obtained:
[1] = system: rutabaga (Brassica napus var. napobrassica, BRSNA); test: Example 5 greenhouse trials, postemergence visual injury; settings: for % Visual Injury Obs / Visual Injury Obs: BRSNA
[2] = system: winter oilseed rape (Brassica napus, BRSNW); test: as above; settings: for % Visual Injury Obs / Visual Injury Obs: BRSNW
[3] = system: Roundup Ready® canola (Brassica napus, RR-BRSNN); test: as above; settings: for % Visual Injury Obs / Visual Injury Obs: RR-BRSNN
[4] = system: winter oilseed rape (Brassica napus, BRSNW); test: Example 4 field trials (Europe), postemergence crop safety, visual phytotoxicity; settings: for Mean % Visual Injury / Mean % Visual Deformation: alone or mixed
[5] = system: spring oilseed rape (Brassica napus, BRSNS); test: as above
[6] = system: Aparima Gold swede (Brassica sp., BRSSS); test: Example 2 field trials (Canterbury, New Zealand), postemergence crop safety, visual phytotoxicity
[7] = system: Aparima Gold swede (Brassica sp., BRSSS); test: Example 1 pot trials, postemergence crop safety, visual phytotoxicity
[8] = 6DAA1, halauxifen-methyl 5, clopyralid-olamine 120 g ae/ha
[9] = 7DAA1, halauxifen-methyl 5, clopyralid-olamine 120 g ae/ha
[10] = 19DAA1, halauxifen-methyl 5, clopyralid-olamine 120 g ae/ha
[11] = Trial 1, 27DAA1, halauxifen-methyl 5, clopyralid-olamine 120 g ae/ha
[12] = Trial 2, 6DAA1, halauxifen-methyl 5, clopyralid-olamine 120 g ae/ha
[13] = Trial 2, 7DAA1, halauxifen-methyl 5, clopyralid-olamine 120 g ae/ha
[14] = halauxifen-methyl alone 2.5 g ai/ha
[15] = halauxifen-methyl alone 5 g ai/ha
[16] = halauxifen-methyl alone 10 g ai/ha

O=C(O)c1nc(Cl)ccc1Cl [Clopyralid-olamine, 2-hydroxyethanaminium 3,6-dichloro-2-pyridinecarboxylate]
% Visual Injury Obs ([1]; 50 g ai/ha alone, 20-22 d): 0% | % Visual Injury Obs ([1]; 100 g ai/ha alone, 20-22 d): 0% | % Visual Injury Obs ([1]; 200 g ai/ha alone, 20-22 d): 0% | % Visual Injury Obs ([2]; 50 g ai/ha alone, 20-22 d): 0% | % Visual Injury Obs ([2]; 100 g ai/ha alone, 20-22 d): 0% | % Visual Injury Obs ([2]; 200 g ai/ha alone, 20-22 d): 0% | % Visual Injury Obs ([3]; 50 g ai/ha alone, 20-22 d): 0% | % Visual Injury Obs ([3]; 100 g ai/ha alone, 20-22 d): 0% | % Visual Injury Obs ([3]; 200 g ai/ha alone, 20-22 d): 0% | Mean % Visual Injury [4, 8]: 1% | Mean % Visual Injury [4, 9]: 1% | Mean % Visual Injury [4, 10]: 1% | Mean % Visual Growth Inhibition ([4]; 85DAA1, 120 g ae/ha alone): 3.8% | Mean % Visual Deformation [4, 11]: 23.8% | Mean % Visual Deformation [4, 12]: 1.0% | Mean % Visual Deformation [4, 13]: 1.0% | Mean % Visual Growth Inhibition ([5]; Trial 1, 14DAA1, 125 g ae/ha alone): 3.0% | Mean % Visual Growth Inhibition ([5]; Trial 1, 14DAA1, 250 g ae/ha alone): 3.0% | Mean % Visual Growth Inhibition ([5]; Trial 2, 17DAA1, 100 g ae/ha alone): 0.0% | Mean % Visual Growth Inhibition ([5]; Trial 2, 17DAA1, 120 g ae/ha alone): 2.3% | Mean % Visual Growth Inhibition ([5]; Trial 2, 24DAA1, 100 g ae/ha alone): 0.0% | Mean % Visual Growth Inhibition ([5]; Trial 2, 24DAA1, 120 g ae/ha alone): 2.0%

COC(=O)c1nc(-c2ccc(Cl)c(OC)c2F)cc(N)c1Cl [Halauxifen-methyl, methyl 4-amino-3-chloro-6-(4-chloro-2-fluoro-3-methoxyphenyl)-2-pyridineccarboxylate]
% Visual Injury Obs ([1]; 2.5 g ai/ha alone, 20-22 d): 5% | % Visual Injury Obs ([1]; 5 g ai/ha alone, 20-22 d): 5% | % Visual Injury Obs ([1]; 10 g ai/ha alone, 20-22 d): 10% | % Visual Injury Obs ([1]; halauxifen-methyl 2.5 g ai/ha): 5% | Visual Injury Obs ([1]; halauxifen-methyl 2.5 g ai/ha): 5% | % Visual Injury Obs ([1]; halauxifen-methyl 5 g ai/ha): 5% | Visual Injury Obs ([1]; halauxifen-methyl 5 g ai/ha): 5% | % Visual Injury Obs ([1]; halauxifen-methyl 10 g ai/ha): 10% | Visual Injury Obs ([1]; halauxifen-methyl 10 g ai/ha): 10% | Percent (%) Visual Injury BRSNA Obs [1, 14]: 5% | Percent (%) Visual Injury BRSNA Obs [1, 15]: 5% | Percent (%) Visual Injury BRSNA Obs [1, 16]: 10% | Mean % Visual Growth Inhibition ([6]; 22DAA1, 7.5 g ae/ha): 25.0% | Mean % Visual Injury ([6]; 22DAA1, 7.5 g ae/ha): 32.5% | Mean % Visual Growth Inhibition ([6]; 28DAA1, 3.75 g ae/ha): 15.0% | Mean % Visual Injury ([6]; 28DAA1, 3.75 g ae/ha): 10.0% | Mean % Visual Growth Inhibition ([6]; 28DAA1, 7.5 g ae/ha): 22.5% | Mean % Visual Injury ([6]; 28DAA1, 7.5 g ae/ha): 27.5% | Mean % Visual Growth Inhibition ([6]; 56DAA1, 7.5 g ae/ha): 23.8% | % Visual Injury Obs ([2]; 2.5 g ai/ha alone, 20-22 d): 7% | % Visual Injury Obs ([2]; 5 g ai/ha alone, 20-22 d): 10% | % Visual Injury Obs ([2]; 10 g ai/ha alone, 20-22 d): 14% | % Visual Injury Obs ([2]; halauxifen-methyl 2.5 g ai/ha): 7% | Visual Injury Obs ([2]; halauxifen-methyl 2.5 g ai/ha): 7% | % Visual Injury Obs ([2]; halauxifen-methyl 5 g ai/ha): 10% | Visual Injury Obs ([2]; halauxifen-methyl 5 g ai/ha): 10% | % Visual Injury Obs ([2]; halauxifen-methyl 10 g ai/ha): 14% | Visual Injury Obs ([2]; halauxifen-methyl 10 g ai/ha): 14% | Percent (%) Visual Injury BRSNW Obs [2, 14]: 7% | Percent (%) Visual Injury BRSNW Obs [2, 15]: 10% | Percent (%) Visual Injury BRSNW Obs [2, 16]: 14% | % Visual Injury Obs ([3]; 2.5 g ai/ha alone, 20-22 d): 11% | % Visual Injury Obs ([3]; 5 g ai/ha alone, 20-22 d): 14% | % Visual Injury Obs ([3]; 10 g ai/ha alone, 20-22 d): 21% | % Visual Injury Obs ([3]; halauxifen-methyl 2.5 g ai/ha): 11% | Visual Injury Obs ([3]; halauxifen-methyl 2.5 g ai/ha): 11% | % Visual Injury Obs ([3]; halauxifen-methyl 5 g ai/ha): 14% | Visual Injury Obs ([3]; halauxifen-methyl 5 g ai/ha): 14% | % Visual Injury Obs ([3]; halauxifen-methyl 10 g ai/ha): 21% | Visual Injury Obs ([3]; halauxifen-methyl 10 g ai/ha): 21% | Percent (%) Visual Injury RR-BRSNN Obs [3, 14]: 11% | Percent (%) Visual Injury RR-BRSNN Obs [3, 15]: 14% | Percent (%) Visual Injury RR-BRSNN Obs [3, 16]: 21% | Mean % Visual Injury [4, 8]: 1% | Mean % Visual Injury [4, 9]: 1% | Mean % Visual Injury [4, 10]: 1% | Mean % Visual Growth Inhibition ([4]; 85DAA1, 5 g ae/ha alone): 5.0% | Mean % Visual Deformation [4, 11]: 0% | Mean % Visual Deformation [4, 12]: 1% | Mean % Visual Deformation [4, 13]: 1% | Mean % Visual Injury ([7]; 3DAA1, 15 g ae/ha): 14.4% | Mean % Visual Injury ([7]; 7DAA1, 15 g ae/ha): 16.2% | Mean % Visual Injury ([7]; 15DAA1, 15 g ae/ha): 16.2% | Mean % Visual Injury ([7]; 28DAA1, 15 g ae/ha): 39.0% | Mean % Visual Growth Inhibition ([5]; Trial 1, 14DAA1, 5 g ae/ha alone): 3% | Mean % Visual Growth Inhibition ([5]; Trial 1, 14DAA1, 6 g ae/ha alone): 3% | Mean % Visual Growth Inhibition ([5]; Trial 1, 14DAA1, 10 g ae/ha alone): 3% | Mean % Visual Growth Inhibition ([5]; Trial 1, 14DAA1, 12 g ae/ha alone): 3% | Mean % Visual Growth Inhibition ([5]; Trial 2, 17DAA1, 5 g ae/ha alone): 10% | Mean % Visual Growth Inhibition ([5]; Trial 2, 24DAA1, 5 g ae/ha alone): 10%
